This passage reports Activity results from ChEMBL document CHEMBL1137758, “Biphenyl C-cyclopropylalkylamides: New scaffolds for targeting estrogen receptor beta” (Bioorg Med Chem Lett, 2009).

The target of assay [1] is T1, Estrogen receptor (Homo sapiens) (UniProt P03372).
T1 sequence (whole entry): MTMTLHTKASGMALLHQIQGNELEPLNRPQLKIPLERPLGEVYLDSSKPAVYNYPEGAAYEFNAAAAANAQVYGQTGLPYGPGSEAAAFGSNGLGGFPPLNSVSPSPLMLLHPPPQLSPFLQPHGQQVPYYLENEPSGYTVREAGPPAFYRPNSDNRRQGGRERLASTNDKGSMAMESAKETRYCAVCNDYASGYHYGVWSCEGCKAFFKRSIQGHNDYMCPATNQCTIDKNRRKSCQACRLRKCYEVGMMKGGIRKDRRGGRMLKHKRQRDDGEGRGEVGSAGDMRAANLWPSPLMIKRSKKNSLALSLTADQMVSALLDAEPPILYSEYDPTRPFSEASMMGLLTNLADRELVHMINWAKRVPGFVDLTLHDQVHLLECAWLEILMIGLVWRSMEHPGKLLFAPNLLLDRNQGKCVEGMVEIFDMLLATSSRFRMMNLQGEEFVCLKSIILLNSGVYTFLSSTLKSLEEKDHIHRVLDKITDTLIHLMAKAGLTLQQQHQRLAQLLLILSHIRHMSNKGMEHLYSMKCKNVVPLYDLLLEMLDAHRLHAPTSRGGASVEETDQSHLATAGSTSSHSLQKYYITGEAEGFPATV
Put plainly: Displacement of fluorescein-labeled estradiol from human recombinant ERalpha at 0.2 uM by fluorescence polarization assay. A general note: Polarisation of emitted light reports the rotation of a fluorescent probe.

The target of assay [2] is T1, Estrogen receptor (Homo sapiens). Briefly: Displacement of fluorescein-labeled estradiol from human recombinant ERalpha at 1 uM by fluorescence polarization assay.
Assay [3] shares this target. Briefly: Displacement of fluorescein-labeled estradiol from human recombinant ERalpha at 5 uM by fluorescence polarization assay.
Assay [4] addresses T2, Estrogen receptor beta (Homo sapiens, UniProt Q92731). Put plainly: Displacement of fluorescein-labeled estradiol from human recombinant ERbeta at 5 uM by fluorescence polarization assay.
Assay [5] addresses T2, Estrogen receptor beta. Put plainly: Displacement of fluorescein-labeled estradiol from human recombinant ERbeta at 0.2 uM by fluorescence polarization assay.
In assay [6] the target is T2, Estrogen receptor beta. Briefly: Displacement of fluorescein-labeled estradiol from human recombinant ERbeta at 1 uM by fluorescence polarization assay.

T2 sequence (Q92731 whole entry): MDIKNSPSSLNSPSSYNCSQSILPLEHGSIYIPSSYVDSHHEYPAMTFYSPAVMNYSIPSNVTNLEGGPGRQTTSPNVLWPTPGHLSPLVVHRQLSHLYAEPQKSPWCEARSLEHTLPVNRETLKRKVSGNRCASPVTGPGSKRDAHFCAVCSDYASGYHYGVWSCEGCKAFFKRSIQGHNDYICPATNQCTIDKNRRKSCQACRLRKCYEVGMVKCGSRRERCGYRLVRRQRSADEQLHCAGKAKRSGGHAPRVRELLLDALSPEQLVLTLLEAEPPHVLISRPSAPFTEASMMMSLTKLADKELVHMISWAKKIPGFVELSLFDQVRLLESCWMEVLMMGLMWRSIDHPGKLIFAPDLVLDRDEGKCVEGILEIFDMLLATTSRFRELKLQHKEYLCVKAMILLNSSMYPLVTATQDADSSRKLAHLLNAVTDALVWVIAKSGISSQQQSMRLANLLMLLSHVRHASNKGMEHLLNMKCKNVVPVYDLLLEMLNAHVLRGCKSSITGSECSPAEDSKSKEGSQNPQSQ

Consider `CCCC[C@@H]1C[C@H]1[C@@H](NC(=O)c1ccco1)c1ccc(C(F)(F)F)cc1`, for which the Activity stood at 6% in assay [1]; 15% in assay [2]; 57% in assay [3]; 22% at Estrogen receptor beta [4]; 0% at Estrogen receptor beta [5]; 2% at Estrogen receptor beta [6].

As to `CCC/C=C(\CCC)[C@@H](NS(=O)(=O)c1ccc(C(Cl)(Cl)Cl)cc1)c1ccccc1`, the Activity in assay [1] stood at 42%; in assay [2] it was 61%; in assay [3], 95%; on Estrogen receptor beta [4], 42%; on Estrogen receptor beta [5] it was 6%; on Estrogen receptor beta [6], 13%.

On to `C=C(CCC)[C@@H](NC(=O)c1ccccc1Cl)c1ccccc1`, for which the Activity in assay [1] turned out to be 68%; in assay [2], 68%; in assay [3] it was 73%; on Estrogen receptor beta [4] it was 7%; on Estrogen receptor beta [5] it was 11%; at Estrogen receptor beta [6], 7%.

In the case of `C=C(CCCC)[C@@H](NC(=O)C(C)(C)C)c1ccccc1`, the Activity in assay [1] is -67%; in assay [2], 13%; in assay [3], 13%; at Estrogen receptor beta [4] it was -4%; on Estrogen receptor beta [5] it was -10%; at Estrogen receptor beta [6], -12%.

Regarding `CCCC[C@@H]1C[C@H]1C(NC(=O)c1cccs1)c1ccc(C(F)(F)F)cc1` (single isomer, unassigned), the Activity in assay [1] is 50%; in assay [2], 58%; in assay [3] it was 79%; at Estrogen receptor beta [4], 13%; on Estrogen receptor beta [5], 8%; on Estrogen receptor beta [6], 14%.

For the compound `CCC/C=C(\CCC)[C@@H](NP(=O)(c1ccccc1)c1ccccc1)c1ccc(C(F)(F)F)cc1`, the Activity was 55% in assay [1]; 65% in assay [2]; 79% in assay [3]; 27% at Estrogen receptor beta [4]; 8% on Estrogen receptor beta [5]; 16% on Estrogen receptor beta [6].

Consider `CCCC[C@@H]1C[C@H]1[C@@H](NC(=O)c1ccco1)c1ccc(-c2ccccc2)cc1`, for which the Activity is 58% in assay [1]; 57% in assay [2]; 54% in assay [3]; 13% at Estrogen receptor beta [4]; -2% at Estrogen receptor beta [5]; 0% on Estrogen receptor beta [6].

Take `CCC/C=C(\CCC)[C@@H](NC(=O)CC(C)C)c1ccccc1`: the Activity in assay [1] is 69%; in assay [2] it was 84%; in assay [3], 110%; on Estrogen receptor beta [4] it was 22%; on Estrogen receptor beta [5] it was -4%; on Estrogen receptor beta [6] it was 3%.

With `CCC/C=C(\CCC)[C@@H](NC(=O)c1ccc(-c2ccccc2)cc1)c1ccc(C(=O)OC)cc1`, the Activity in assay [1] was 27%; in assay [2], 25%; in assay [3], 27%; at Estrogen receptor beta [4] it was 4%; at Estrogen receptor beta [5], -1%; on Estrogen receptor beta [6], -3%.

As to `CCC/C=C(\CCC)[C@@H](NS(=O)(=O)c1ccc(C(F)(F)F)cc1)c1ccc(C(=O)OC)cc1`, the Activity in assay [1] stood at 63%; in assay [2], 86%; in assay [3], 90%; on Estrogen receptor beta [4], 43%; at Estrogen receptor beta [5], 15%; on Estrogen receptor beta [6], 29%.

For the compound `CCC[C@@H]1C[C@@]1(CCC)[C@@H](NP(=O)(c1ccccc1)c1ccccc1)c1ccc(Cl)cc1`, the Activity in assay [1] was 5%; in assay [2], 30%; in assay [3], -44%; at Estrogen receptor beta [4], -5%; on Estrogen receptor beta [5], 2%; on Estrogen receptor beta [6] it was -1%.

In the case of `CCCC[C@@H]1C[C@H]1[C@@H](NC(=O)c1cccnc1)c1ccc(-c2ccccc2)cc1`, the Activity in assay [1] worked out at 64%; in assay [2], 63%; in assay [3], 53%; on Estrogen receptor beta [4] it was 10%; at Estrogen receptor beta [5], 2%; on Estrogen receptor beta [6] it was 2%.

As for `C=C(CCCC)[C@@H](NC(=O)c1ccc(C(=O)OC)cc1)c1ccccc1`, the Activity was 21% in assay [1]; 24% in assay [2]; 37% in assay [3]; 5% at Estrogen receptor beta [4]; -9% on Estrogen receptor beta [5]; -7% at Estrogen receptor beta [6].

For `CCC/C=C(\CCC)[C@@H](NS(=O)(=O)c1ccc(-c2ccccc2)cc1)c1ccc(C(=O)OC)cc1`, the Activity in assay [1] is -69%; in assay [2], 47%; in assay [3], 54%; at Estrogen receptor beta [4], 16%; on Estrogen receptor beta [5], 6%; on Estrogen receptor beta [6], 12%.

For the compound `CCC/C=C(\CCC)[C@@H](NS(=O)(=O)c1ccccc1)c1ccc(C(F)(F)F)cc1`, the Activity in assay [1] is 70%; in assay [2], 66%; in assay [3], 102%; on Estrogen receptor beta [4], 30%; on Estrogen receptor beta [5], 13%; on Estrogen receptor beta [6], 10%.

In the case of `CCCC[C@@H]1C[C@H]1[C@@H](NC(=O)c1ccccc1)c1ccc(-c2ccccc2)cc1`, the Activity was determined as 72% in assay [1]; 77% in assay [2]; 46% at Estrogen receptor beta [4]; 26% at Estrogen receptor beta [5]; 31% on Estrogen receptor beta [6].

On to `CCCC[C@@H]1C[C@H]1C(NC(=O)c1ccco1)c1ccc(C(=O)OC)cc1` (single isomer, unassigned), for which the Activity worked out at 64% in assay [1]; 84% in assay [2]; 89% in assay [3]; 15% at Estrogen receptor beta [4]; 8% at Estrogen receptor beta [5]; 2% on Estrogen receptor beta [6].

Consider `CCCCCC/C=C(\C)[C@@H](NC(=O)c1ccc(C(F)(F)F)cc1)c1ccc(-c2ccccc2)cc1`, for which the Activity in assay [1] is 29%; in assay [2] it was 20%; in assay [3], 1%; on Estrogen receptor beta [4], -3%; on Estrogen receptor beta [5], -7%; on Estrogen receptor beta [6], -6%.

For `CCC/C=C(\CCC)[C@@H](NP(=O)(c1ccccc1)c1ccccc1)c1ccccc1`, the Activity in assay [1] is 47%; in assay [2], 25%; in assay [3] it was 72%; at Estrogen receptor beta [4] it was 14%; at Estrogen receptor beta [5], 6%; on Estrogen receptor beta [6] it was 9%.

Turning to `CCC/C=C(\CCC)[C@@H](NS(C)(=O)=O)c1ccccc1`, the Activity in assay [1] was 48%; in assay [2] it was 39%; in assay [3], 56%; at Estrogen receptor beta [4], 17%; at Estrogen receptor beta [5], -3%; on Estrogen receptor beta [6] it was -4%.

Turning to `CCCC[C@@H]1C[C@H]1[C@@H](NC(=O)c1ccccc1)c1ccc(C(F)(F)F)cc1`, the Activity was 32% in assay [1]; 33% in assay [2]; 48% in assay [3]; 13% at Estrogen receptor beta [4]; -9% at Estrogen receptor beta [5]; 1% on Estrogen receptor beta [6].

Consider `CCC/C=C(\CCC)[C@@H](NS(=O)(=O)c1cccc2cccnc12)c1ccc(C(=O)OC)cc1`, for which the Activity stood at 54% in assay [1]; 111% in assay [2]; 54% in assay [3]; 42% on Estrogen receptor beta [4]; 7% on Estrogen receptor beta [5]; 24% at Estrogen receptor beta [6].

Regarding `CCCCCC/C=C(\C)[C@@H](NC(=O)c1cccnc1)c1ccc(-c2ccccc2)cc1`, the Activity is 32% in assay [1]; 44% in assay [2]; 48% in assay [3]; 6% at Estrogen receptor beta [4]; -8% at Estrogen receptor beta [5]; -4% at Estrogen receptor beta [6].

`CCC[C@@H]1C[C@@]1(CCC)[C@@H](NS(=O)(=O)c1cccc2cccnc12)c1ccc(-c2ccccc2)cc1`: the Activity in assay [1] amounted to 58%; in assay [2], 70%; in assay [3], 88%; at Estrogen receptor beta [4] it was 29%; on Estrogen receptor beta [5], 15%; on Estrogen receptor beta [6], 17%.

As to `CCC/C=C(\CCC)[C@@H](NC(=O)c1ccccc1)c1ccccc1`, the Activity stood at 51% in assay [1]; 56% in assay [2]; 82% in assay [3]; 17% at Estrogen receptor beta [4]; 8% on Estrogen receptor beta [5]; 6% at Estrogen receptor beta [6].

With `CCCC[C@@H]1C[C@H]1[C@@H](NC(=O)c1ccc(-c2ccccc2)cc1)c1ccc(-c2ccccc2)cc1`, the Activity is 52% in assay [1]; 42% in assay [2]; -6% in assay [3]; 4% at Estrogen receptor beta [4]; 0% on Estrogen receptor beta [5]; 6% at Estrogen receptor beta [6].

Take `CCC[C@@H]1C[C@@]1(CCC)[C@@H](NC(=O)Cc1ccccc1)c1ccc(-c2ccccc2)cc1`: the Activity in assay [1] was 7%; in assay [2], 17%; in assay [3], -6%; at Estrogen receptor beta [4], -5%; at Estrogen receptor beta [5], -8%; on Estrogen receptor beta [6], -6%.
